# Measurements reported in patent US10206907B2, “Compounds useful for the treatment of degenerative and inflammatory diseases” (GALAPAGOS NV, priority 2008, dated 2019).
# System: Collagen antibody-induced arthritis
# Assay: MAB model (collagen antibody-induced arthritis)
# Type: in vivo, mouse
# Details: 30 mg/kg p.o., DBA/J mice
# Protocol: The MAB model allows a rapid assessment of the modulation of an RA-like inflammatory response by therapeutics ([…]. Nature Protocols (2006) 2512-2516: Collagen antibody-induced arthritis). DBA/J mice were injected i.v. with a cocktail of mAbs directed against collagen II. One day later, compound treatment was initiated (vehicle: 10% (v/v) HPβCD). Three days later, mice received an i.p. LPS injection (50 μg/mouse), resulting in a fast onset of inflammation. Compound treatment was continued until 10 days after the mAb injection. Inflammation was read by measuring paw swelling and recording the clinical score of each paw. The cumulative clinical arthritis score of four limbs was presented to show the severity of inflammation. A scoring system is applied to each limb using a scale of 0-4, with 4 being the most severe inflammation. • 0 Symptom free • 1 Mild, but definite redness and swelling of one type of joint such as the ankle or wrist, or apparent redness and swelling limited to individual digits, regardless of the number of affected digits • 2 Moderate redness and swelling of two or more types of joints • 3 Severe redness and swelling of the entire paw including digits • 4 Maximally inflamed limb with involvement of multiple joints
structure (smiles),measurement,value
"N#Cc1ccc(COc2ccc(-c3cccc4nc(NC(=O)C5CC5)nn34)cc2)cn1 [Compound 176, N-(5-(4-((6-cyanopyridin-3-yl)methoxy)phenyl)-[1,2,4]triazolo[1,5-a]pyridin-2-yl)cyclopropanecarboxamide]",clinical score,reduced the clinical score with statistical significance
same,inflammation,significantly reduced inflammation
